# Experimental data published in patent US12534439B2, “Xanthohumol derivatives and methods for making and using” (Oregon State University, priority 2021, dated 2026).
# Where two headings read alike, the source gives them in different places.
# How the values were obtained:
# UCP1 = assay: Western blotting of UCP1 in skeletal muscle, BAT and WAT; assay type: in vivo; conditions: HFD-fed mice, versus control
# Method: Western Blotting. Approximately 100 mg of frozen BAT and WAT was homogenized in RIPA buffer with protease and phosphatase inhibitors (Santa Cruz Biotechnology, Dallas, TX, USA). Tissues were sonicated for 30 seconds, and the homogenates were centrifuged at 15700 g for 10 minutes to collect the supernatants. Protein (30 μg) was separated by SDS-PAGE using 4-15% MP TGX Gels (Bio-Rad, Hercules, CA, USA) and blotted onto nitrocellulose membranes. The membranes were blocked with 5% nonfat milk for 90 minutes and incubated with antibodies against GAPDH (#0411, Santa Cruz Biotechnology, Dallas, TX, USA) or UCP1 (#10983, Genetex, Irvine, CA, USA) for 60 minutes. After a second reaction with secondary antibodies (horseradish peroxidase-conjugated IgG antibodies), the protein bands on the nitrocellulose membranes were visualized by enhanced chemiluminescence substrate on an electrochemical luminescence (ECL) imager (Thermo Fisher Scientific, Waltham, MA, USA). Band intensities were quantified by densitometry using Image J software.
# [1] = Quantification of XP and XN in plasma and cortex by UPLC-MS with or without glucuronidase digestion; assay type: in vivo, mice; conditions: for concentration at 11 weeks: C57BL/6J, mouse, without glucuronidase digestion, daily oral XP 30, XN 60 mg/kg body weight, mean ± SEM
# Method: Quantification of XP and XN. For plasma extractions, ascorbic acid (5 μL, 10% m/m water, Sigma-Aldrich, St Louis, MO, USA) was added to 40 μL of plasma. For tissue extractions, 20 mg of cortex was extracted with 200 μL of 50% methanol in water and 10 μL of ascorbic acid (10% m/m water). Samples were incubated with or without 10 μL of glucuronidase (20 mg/mL, Sigma-Aldrich, St Louis, MO, USA) for 3 hours at 37° C. The samples were extracted with 200 μL of acetonitrile containing 100 ng/mL of [13C3]-XN. The supernatant was transferred to a new tube and vacuum-dried, and the pellet was reconstituted in 100 μL of 50% methanol in water. UPLC-MS was performed using a hybrid triple quadrupole linear ion trap mass spectrometer (4000 QTRAP, AB SCIEX, Toronto, Canada). The elution profile was set as follows: 5% B from 0 to 0.5 min, 5 to 100% B from 0.5 to 3 minutes, 1 minute hold at 100% B, followed by re-equilibration of the HPLC column at 5% B for 2 minutes. Selected reaction monitoring transitions used for quantification were m/z 353.1>119.1 for XN, m/z 379.3>321.3 for XP, and m/z 356.1>120.1 for the [13C3]-XN internal standard.
# For plasma extractions, ascorbic acid (5 μL, 10% m/m water, Sigma Aldrich, St Louis, MO, USA) was added to 40 μL of plasma. Samples were incubated with or without 10 μL glucuronidase (20 mg/mL, Sigma Aldrich, St Louis, MO, USA) for 3 hr at 37° C. Samples were extracted with 200 μL of acetonitrile containing 100 ng/mL [^13C3]—XN^1. The supernatant was transferred to a new tube, vacuum-dried and the pellet was reconstituted in 100 μL of 50% methanol in water. UPLC-MS was performed using a hybrid triple quadrupole linear ion trap mass spectrometer (4000 QTRAP, AB SCIEX, Toronto, Canada) as previously reported with some modifications. The elution profile was set as follows: 5% solvent B from 0 to 0.5 minute, 5% to 100% B from 0.5-3 minutes, 1 minute hold at 100% B followed by re-equilibration of the HPLC column at 5% B for 2 minutes. Selected Reaction Monitoring transitions used for quantification were m/z 353.1>119.1 for XN, m/z 379.3>321.3 for XP and m/z 356.1>120.1 for [^13C3]—XN internal standard. XP and XN concentrations were calculated by the external calibration method using calibration curves constructed from pure XP and XN standards.
# [2] = cortex, read-out: CORTEX concentration, Non-glucuronidated
# [3] = plasma, read-out: PLASMA concentration, Non-glucuronidated
Compound,UCP1 protein expression in WAT (UCP1),UCP1 protein expression in skeletal muscle and BAT (UCP1),"concentration at 11 weeks [1, 2]","concentration at 11 weeks [1, 3]","UCP1 protein expression in skeletal muscle, BAT, or WAT (UCP1)",Phase 1 metabolism ([1]; plasma of treated mice),"Metabolites detected in plasma ([1]; plasma of treated mice, mass spectrometric analysis)"
"COc1cc(O)c(CC=C(C)C)c(O)c1C(=O)/C=C/c1ccc(O)cc1 [XN, xanthohumol]",decreased,no significant changes,59.7 ± 16.8 ng/g,13.2 ± 3.07 ng/mL,,,
"COc1cc(O)c(CC=C(C)C)c(O)c1-c1cc(-c2ccc(O)cc2)n(C)n1 [XP, 4-(5-(4-hydroxyphenyl)-1-methyl-1H-pyrazol-3-yl)-5-methoxy-2-(3-methylbut-2-en-1-yl)benzene-1,3-diol]",,,40.1 ± 2.8 ng/g,43.5 ± 3.54 ng/mL,no effect,resistant to phase 1 metabolism,XP-glucuronide was the only metabolite
